# Source: a melting point compilation (Tetko et al.; mined from patent text by program, amines drawn as free bases though some values may be those of a salt)
row,Structure (SMILES),melting point
1,CC(C)=CCc1c(O)ccc(CCCc2ccc(O)cc2)c1O,115 to 116 °C
2,CCOC(=O)NNC(=O)NC1c2ccccc2Oc2ccccc21,188 to 191 °C
3,CNCc1ccc2cc(OC)ccc2c1,96 to 104 °C
4,COC(=O)[C@H](Cc1ccccc1)NC(=O)c1ccc(N)cc1,145 to 146 °C
5,COCCCn1c2cc(C)ccc2n2c(C)nnc12,113 to 114 °C
6,CCOc1ccccc1CNC(=O)c1ccc2cnccc2n1,79 to 80 °C
7,CCCS(=O)(=O)NCC1Cc2ccc(C3=NNC(=O)CC3)cc2C1 (configuration not stated),158 to 159 °C
8,CC[C@@H](c1ccc(C(F)(F)F)cc1)N(Cc1ccc(C(=O)OC)cc1)S(=O)(=O)c1ccc(Cl)cc1,120 to 121 °C
9,CC(C)=CCC/C(C)=C/COc1c(I)c(C)c(I)c(C)c1I,65 to 66 °C
10,CCCCNS(=O)(=O)CC(O)C(O)C(CC1CCCCC1)NC(=O)c1ccccn1 (configuration not stated),167 to 170 °C
11,CCOC(=O)c1ccc(OCCCCCCCCCCCCCCCOc2ccc(Cl)cc2)cc1,84 to 85 °C
12,CS(=O)(=O)N(C(=O)OCc1ccccc1)c1cc(O)ccc1OCc1ccccc1,138 to 140 °C
13,CCC(C)(C)OC(=O)N1CCC(c2ccc(COc3ccc(S(C)(=O)=O)cc3)nc2)CC1,114 to 115 °C
14,Cc1cc(C)c(N2c3ccccc3Sc3ccccc32)c(C)c1,192 to 200 °C
15,O=C(Cn1c(-c2ccc(Cl)cc2)nc2cccnc21)NC1CC1,231 to 232 °C
16,COc1c(Cl)ccnc1CSc1nc2cc(OC(F)F)ccc2[nH]1,94 to 99 °C
17,CCSc1nc2c(C)sc(C(=O)O)c2n1Cc1ccc(-c2ccccc2-c2nc(=O)[nH]o2)cc1,144 to 147 °C
18,O=C(O)c1cn(CCc2cccc(Cl)c2)c2cc(C3CC3)nn2c1=O,230 to 235 °C
19,O=c1cc(-c2cccc(Cl)c2)oc2ccc(OCCCCCCN3CCC(O)CC3)cc12,120 to 121 °C
20,CC(CNCC(O)c1ccccc1)OCc1ccccc1 (configuration not stated),90 to 100 °C
21,CCOC(=O)c1ccn2nccc2n1,114 to 115 °C
22,CCC(C)c1ccc(-n2c(-c3cc(C)c(OCCO)c(C)c3)nc3cc(S(C)(=O)=O)ccc3c2=O)cc1 (configuration not stated),235 to 237 °C
23,CCCCCCCCCCCCCCCCCCOc1cc(OCCCOc2ccc(OCc3ccccc3)cc2)cc(C(=O)OC)c1,76 to 77 °C
24,COc1cc(CN[C@@H](CC(C)C)C(=O)N2CCN(C(c3ccc(F)cc3)c3ccc(F)cc3)CC2)cc(OC)c1OC,58 to 62 °C

row,Structure (SMILES),melting point
1,CNC(=O)NC1CCC(=O)c2ccccc21 (configuration not stated),220 to 223 °C
2,Cc1nnn(Cc2cc(-c3ncco3)ccc2-c2ccccc2S(=O)(=O)Nc2onc(C)c2C)n1,168 to 174 °C
3,Cn1cc(-c2ccccc2)c(=S)c(-c2cccc(Cl)c2)c1,190 to 193 °C
4,CCCOc1ccc(S(=O)(=O)N2CCN(CC)CC2)cc1-c1nc2cc(Cl)c([N+](=O)[O-])cc2c(=O)[nH]1,239 to 241 °C
5,COc1ccc(C(CC(C)=O)N2C(=O)c3cccc(NC(C)=O)c3C2=O)cc1OC1CCCC1 (configuration not stated),145 to 147 °C
6,N#CC(C#N)=C1Sc2nc3ccc(C(F)(F)F)cc3nc2S1,197 to 199 °C
7,O=C(c1ccccc1)N1CCCSC1=C[N+](=O)[O-],90 to 92 °C
8,Cc1c(C)c(N2CCN(c3ccc(C(F)(F)F)cc3)CC2)c(C)c2c1OC(C)(C)C2O (configuration not stated),212 to 214 °C
9,CC(C)Nc1nc2c(F)c(Cl)c(Cl)cc2[nH]1,212 to 215 °C
10,CSc1sccc1C#N,112 to 115 °C
11,CCCCCCCCCCCC(=O)NNC(=O)c1ccccc1O,158 °C
12,c1ccc2c(CN3CCN(c4ccc5c(c4)OCO5)CC3)n[nH]c2c1,149 to 150 °C
13,COc1ccc(CN2C(C(=O)Nc3ccccn3)=C(O)c3sc4ccccc4c3S2(=O)=O)cc1,188 to 190 °C
14,COc1nc(C(Cl)(Cl)Cl)c(Cl)c(OC)c1Cl,67 to 69 °C
15,COc1cc(Nc2c(C#N)cnc3cc(/C=C/CCN4CCOCC4)ccc23)c(Cl)cc1Cl,88 to 89 °C
16,NC(=O)c1c[nH]cc1-c1cccc(Cl)c1Cl,185 to 190 °C
17,COC(=O)c1c(-c2ccccc2)n[nH]c1C,119 to 120 °C
18,Cc1ccc(S(=O)(=O)OCC2COc3ccc4[nH]c(C(F)(F)F)nc4c3O2)cc1 (configuration not stated),114 to 116 °C
19,CC12C=CC(=O)C=C1C1OC1C1C2CCC2(C)C(=O)CCC12 (configuration not stated),182 to 194 °C
20,O=CNc1c(-c2ccccc2)sc2ccccc12,78 to 79 °C
21,CCOc1cccc2cc(S(=O)(=O)Nc3ccc(F)c(N)c3)c(=O)oc12,160 to 162 °C
22,N#Cc1ccc(Oc2cccc(F)c2)cc1,67 to 69 °C
23,Cc1oc(-c2ccccc2)nc1COc1cc(COc2ccccc2CC(=O)O)on1,152 to 153 °C
24,O=C(O)c1c(-c2ccc(Cl)cc2)ccnc1Br,204 to 208 °C

row,Structure (SMILES),melting point
1,C=CCOC(=O)c1c(C)nc2c(cnn2CCC(C)CC)c1N (configuration not stated),85 to 86 °C
2,N#Cc1nn(-c2c(Cl)cc(C(F)(F)F)cc2Cl)cc1C1CC1(Br)Br (configuration not stated),121 to 123 °C
3,O=c1oc2c(c(O)c1Br)c(=O)n(Cc1ccccc1)c1ccccc21,226 to 229 °C
4,O=C1c2ccc(F)cc2CCc2cccnc21,116 to 119 °C
5,N=C(N)Nc1cc(Cl)ccc1N1CCOCC1,135 to 138 °C
6,CC(=O)c1cn(S(=O)(=O)c2ccccc2)c2nccc(-c3ccccc3)c12,138 to 140 °C
7,CN(C)C(=O)N(C)c1nnc(C(C)(C)C#N)s1,92 to 94 °C
8,CCCN1C(=O)c2cnc(-c3ccccc3)nc2N(C(=O)CN2CCN(C)CC2)c2ccccc21,148 to 150 °C
9,CN(C)CCCC(=O)N1CCC(c2[nH]nc3c2C(=O)c2c(NC(=O)NN4CCOCC4)cccc2-3)CC1,145 to 147 °C
10,CC(=O)OCC(=O)Nc1nc2c(Oc3cc(-c4ccc(C(F)(F)F)cc4)ncn3)cccc2s1,119 to 138 °C
11,COc1cc(Nc2nccc(-c3ccc(N4CCNCC4)nc3)n2)cc(OC)c1,176 to 177 °C
12,Cc1noc2cc3c(cc12)C1(CO3)C(=O)N(Cc2cnccn2)c2ccccc21 (configuration not stated),170 to 173 °C
13,COC(=O)C(OC)(OC)c1ccccc1Br,55 °C
14,COc1c(C)c2c(c(OS(=O)(=O)c3ccc(C)cc3)c1CC=C(C)C=O)C(=O)OC2,168 to 173 °C
15,O=C(O)C(=O)c1ccc(OC/C=C/c2ccc(F)cc2)cc1,132 to 133 °C
16,C[C@H](C(=O)OCc1ccccc1)n1ccn(-c2ccc(OCC(F)(F)C(F)F)cc2)c1=O,75 to 76 °C
17,O=C(Cc1ccc(CN2CCC(=O)C(C(c3ccccc3)c3ccccc3)C2)cc1)OCC(=O)c1ccccc1 (configuration not stated),99 to 110 °C
18,C#CC1(O)CCc2c(OC)ccc(OC)c2C1 (configuration not stated),103 to 105 °C
19,Cc1nc(N2CCc3ccccc3CC2)c(C#N)c(=O)n1C[C@H]1COC(C)(C)O1,166 to 168 °C
20,COC(=O)Cc1cc(O)c(C(C)(C)C)cc1C,100 to 102 °C
21,Nc1ccn(/C=C2/CC2(CO)CO)c(=O)n1,250 to 253 °C
22,O=C1NCC(CCc2ccccc2)O1 (configuration not stated),82 to 83 °C
23,O=C(c1ccc(F)cc1)c1ccc(SCc2ccccc2)cc1,96 °C
24,NCC1(c2onc(-c3ccc(O)cc3)c2-c2ccccc2)CC1,220 to 225 °C
